The subject of one assay is penicillium expansum. Put plainly: in vivo efficacy on Golden apples, preventive sprinkling then inoculation, fruit affected by rot counted. The following applies: for Efficacy: Golden apples, 20° C., scored from three weeks; for control of the growth of the fungus (in words): hexanal 1000 ppm, imidazalil 250 ppm, alone or combined, apples. How it is done:
This example provides an illustration of the efficacy of the composition according to the invention for combating penicillium expansum on apples. The trial was carried out in vivo.
The fungicidal compositions were used in solution at the doses detailed in Table 2. Apples of the Golden variety, untreated after harvest, were treated by sprinkling a fungicidal solution up to the run-of limit at the doses described in Table 2 (10 apples per product). Six hours later, the fruit was inoculated by sprinkling an aqueous suspension at 150000 spores/ml of […]. obtained from a pre-culture on PDA medium. This inoculation by sprinkling was carried out up to the run-off limit. The fruit was then stored in the dark at 20° C. and 100% relative humidity and the scores for the disease were measured three weeks later, for a period of two weeks. The numbers of fruit samples affected by rot were counted and, in comparison with the untreated control, a percentage efficacy was calculated using the formula
(§1) (Diameter of the Control−Diameter of the Trial/Diameter of the Control×100)

Another assay relates to geotrichum candidum. The assay is described as follows: in vivo efficacy on valencia citrus, wound inoculation then treatment six hours later, fruit affected by rot counted. The conditions noted are these: 5° C., 28 days. How it is done: This trial was carried out in vivo.
The fungicidal compositions were used in solution at the doses detailed in Table 3. Citrus of the valencia variety, untreated after harvest, was treated by sprinkling a fungicidal solution up to the run-off limit at the doses described in Table 3 of results (10 citrus per product). First inoculation by pre-made wounds was made with a suspension of 150000 spores/ml of geotrichum candidum, obtained from a pre-culture on PDA medium. Then six hours later, the product tested was applied up to the run-off limit. The fruit were then stored in the dark at 5° C. and 100% relative humidity and the scores for the disease were measured 28 days later.
The number of fruit samples affected by rot was counted and, in comparison with the untreated control, a percentage efficacy was calculated and show in table 3 below: […]

In another assay the test system is penicilium italicum. The assay is described as follows: in vitro efficacy on PDA medium in microtitre plate wells (radial growth of colony). The format is cell-based. The conditions noted are these: for control of the growth of the fungus (in words): 60 ppm each, alone or combined; for Radial growth of fungus / Efficacy: 60 ppm, PDA medium, 22° C.; for Radial growth of fungus: control 20 mm; for Efficacy: versus untreated control. The protocol:
This example illustrates the efficacy of the composition according to the invention for controlling penicilium italicum. The trial was carried out in vitro.
The fungicidal compositions were used in the form of the formulated product incorporated in PDA medium in superfusion at doses in an amount of 6 μl of fungicidal solutions together with 1000 μl of PDA per well of 20 mm in diameter of a microtitre plate (four repeats/product). One day later, a microdrop of an aqueous suspension of penicilium italicum supplemented with 400 ppm of Tween 20 was brought to the surface of each well of the microtitre plate. The cultures were then incubated at 22° C. at 60% relative humidity under subdued light until the control culture (without fungicide) had covered the entire surface of the well. The diameter of each colony was then measured and, in comparison with untreated control, a percentage efficacy was calculated using the formula
as §1

As to `C=CCOC(Cn1ccnc1)c1ccc(Cl)cc1Cl` (stereo not drawn) [Imazalil, imazalil], the Efficacy is 28% in the assay on penicillium expansum (250 ppm) and 0% in the assay on geotrichum candidum (500 ppm). Besides, in the assay with penicillium expansum, the “control of the growth of the fungus (in words)” value (shortened to “control”) is “did not control the growth of the fungus”.
On to `CCCCCC=O` [hexanal], for which the Efficacy worked out at 12% with penicillium expansum (1000 ppm), 20% in the assay on geotrichum candidum (1500 ppm) and 5% with penicilium italicum. Moreover, the entries for the “control” value in the assay on penicillium expansum and with penicilium italicum were “did not control the growth of the fungus” and “poor results”, respectively. The “Radial growth of fungus” value in the assay with penicilium italicum was 19 mm.
Regarding `CCCN(CCOc1c(Cl)cc(Cl)cc1Cl)C(=O)n1ccnc1` [procloraz, prochloraz], in the assay on penicilium italicum, the “control” value is “poor results”, the “Radial growth of fungus” value came to 18 mm and the Efficacy was determined as 10%.

These data come from patent publication US20130345053A1, “Fungicidal Composition” (ICA LABORATORIES CC, priority 2011, published 2013).
